# Legend:
# human skin explants = test: Melanogenesis in human skin living explants (Masson's Fontana staining, image analysis); assay type: cell-based; settings: for melanogenesis: compared with chronic UVA; for increase of melanin content in the basal layer of the epidermis (image analysis, stained surface): D6, explants phototype II, p<0.01
# Description: Human skin explants of an average diameter of 12 mm (±1 mm) were prepared on an abdoplasty coming from a person (reference: P2237AB47—phototype II) or person (reference P2196-AB61, phototype III). The explants were kept in survival in BEM culture medium (BIO-EC's Explants Medium) at 37° C. in a humid, 5%-CO2 atmosphere.
# The Ambermax was diluted in 0.1% ethanol at the following concentrations: 0.3 μM, 1 μM, 3 μM, 10 μM, 15 μM, 30 μM and 100 μM. The diluted solutions were stored at 4° C. during the study.
# The explants were treated for 10 days with Ambermax (see products application below) or with no treatment.
# On day 0 (DO), day 3 (D3), day 5 (D5), day 7 (D7) and day 10 (D10), the tested products (compounds for use in the invention) were 1) applied topically using a small spatula based on 2 μl per explant (2 mg per cm^2) at the indicated concentrations, 2) applied intradermatically by injections into the dermis using a syringe with 20 μL of product for each explant or 3) applied systemically by dilutions of the compound of invention in the culture media at the indicated concentration. […] The culture medium was half renewed (1 ml/well) on day 3, day 5, day 7 and day 10.
# On day 0 (D0), D2, D3, D6, and D8, the tested products (compounds for use in the invention) were applied topically using a small spatula on the basis of 2 μl per explant (2 mg per cm^2). […] The culture medium was half renewed (1 ml/well) on D2, D3, D6 and D8.
# After fixation for 24 hours in buffered formalin solution, the samples were dehydrated and impregnated in paraffin using a Leica PEARL dehydration automat. The samples were then paraffin-embedded using a Leica EG 1160 embedding station. 5-μm-thick sections of paraffin-embedded formol fixed sections were realized using a Leica RM 2125 Minot-type microtome, and the sections were then mounted on Superfrost® Plus glass slides. Microscopical observations were realized using a Leica DMLB, a BX43 or BX63 Olympus microscope. Pictures were digitized with an Olympus DP72 or DP74 camera and the Cell^D or cellSens data storing software.
# Melanin was visualized after silver impregnation according to Masson's Fontana staining method on formalin-fixed paraffin-embedded (FFPE) skin sections. The staining was assessed by microscopical observation and image analysis of specific batches. Concerned batches: T0, (TUV, P1→P10) on D5 or D6 and D10.
# The images analyses were performed on all the images of each batch, according to the following method using Cell^D or cellSens software:
# For each batch of explants, the percentage of the region of interest covered by the staining (stained surface percentage) is determined by image analysis according to the previously described process.
# Stained surfaces comparisons: the stained surface percentage (Surf %) for each treatment is compared to the untreated condition=>P vs T. The same comparisons are made for the induced batches with or without treatment=>T vs TUV.
# The effects ex vivo was shown by treating human biopsies for 10 days (human living explants: 12 mm+/−1, donor, skin type III) with a systemic application, intradermic injections or a topical application of compounds according to embodiments of the invention (Ambermax). Concentrations of 1, 5 and 10 μM of this compound were used for systemic application and intradermic injections on the human explants. For topical application, biopsies were treated with 10, 30, and 100 μM of Ambermax. As control, non-treated explants or/and explants exposed to chronic UVA-irradiations were used as described in the experimental procedures.
# OR7C1 = target: T1, OR7C1 (Homo sapiens, UniProt O76099); test: Luciferase-based CRE gene reporter assay, dose-response on OR7C1; assay type: cell-based; settings: negative logarithm of the EC50 in Moles; semi-logarithmic dilutions from 1 mM to 316 nM on OR7C1
# T1 construct: transfected with a plasmid containing the CRE-luciferase and a plasmid containing the olfactory receptor; expressed in transfected cells; host or cells: HEK293T-RTP1A1/RTP2 (HEK293T stably expressing the chaperones RTP1A1 and RTP2)
# T1 sequence (O76099 1-320): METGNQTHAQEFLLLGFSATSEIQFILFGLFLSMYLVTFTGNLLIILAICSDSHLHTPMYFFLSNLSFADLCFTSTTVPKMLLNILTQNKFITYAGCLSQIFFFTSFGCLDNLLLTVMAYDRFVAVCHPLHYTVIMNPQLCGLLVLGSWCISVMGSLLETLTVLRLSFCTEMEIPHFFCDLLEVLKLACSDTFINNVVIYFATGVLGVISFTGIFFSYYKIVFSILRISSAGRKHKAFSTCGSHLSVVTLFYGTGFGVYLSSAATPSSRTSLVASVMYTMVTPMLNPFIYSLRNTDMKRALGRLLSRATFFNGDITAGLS
# Description: HEK293T-RTP1A1/RTP2 cells were maintained in minimal essential medium (EMEM, Lonza) containing 10% fetal bovine serum (M10). These cells were generated by transfecting HEK293T (Thermofisher Scientific, cat ref: R70007) with an expression vector containing the sequences of the chaperone proteins RTP1A1 and RTP2 and a resistance gene to puromycin, using Lipofectamine 2000. The recombinant cell population, used in these experiments, was selected by adding 10 μg/ml of puromycin into the culture medium and subsequently subcloned (WO 2014/191047 A1).
# Potential OR7C1 agonists were diluted at a concentration of 1 mole/liter (M) into an organic solvent such as Dimethyl Sulfoxide (DMSO) or Ethanol to generate stock solutions. […]
# For concentration-response analysis, serial dilutions of the tested molecules were prepared from stock solutions in EMEM plated into 96-well plates.
# For the dose-response analysis, a Luciferase-based gene reporter assay (Promega, Leiden, the Netherlands) was used. Briefly, cells were platted on poly-D-lysine-coated 96-well plates and transfected with a plasmid containing the CRE-luciferase and a plasmid containing the olfactory receptor. Sixteen hours after transfection, the culture medium was replaced by serum-free EMEM containing the tested compounds at a determined concentration. After four hours of incubation at 37° C., cells were lysed and processed for luminescence measurement. Luminescence emission was recorded. Results were expressed as luciferase activity ([…] (RLU)) or as percentage of the response induced by 10 μM of the adenylate cyclase activator Forskolin. An empty plasmid is used as negative control.
# Dose-response analyses using the luciferase-based reporter assay were performed using semi-logarithmic serial dilutions of the compounds, from 1 mM to 316 nM, on OR7C1. 46 compounds were tested in concentration-response analyses. In each experiment, an empty vector (pEFIBRHO) was used as negative control. Values are given as the negative logarithm of the EC50 in Moles.
substance,measurement,setting,value
Ambermax [Compound 16],enhancement of melanogenesis (microscopical observation and semi-quantification of melanin staining),"human skin explants; FFPE skin sections, without UVs exposure",very effective to enhance melanogenesis without UVs exposure
same,most effective concentration (melanogenesis),human skin explants; intradermal injection for 10 days,1 µM
same,melanogenesis,"human skin explants; intradermal injection, 1 μM and 10 μM, after 5 days",increase of melanogenesis slightly weaker than that achieved with chronic UVA
same,melanin content present in the basal layer in skin explants,"human skin explants; second batch of explants, phototype II, topical",induced an increase of the melanin content present in the basal layer
same,most efficient concentration to stimulate melanin synthesis,"human skin explants; systemic treatment, day 10",1 µM
same,"increase of melanin content in the basal layer of the epidermis (image analysis, stained surface)",human skin explants; topical 10 μM,152%
same,"increase of melanin content in the basal layer of the epidermis (image analysis, stained surface)",human skin explants; topical 15 μM,160%
same,melanogenesis,"human skin explants; topical treatment, 10 μM, 30 μM and 100 μM, 10 days","moderate melanogenesis induction, slightly lower than that obtained with of chronic UVA"
same,melanogenesis,"human skin explants; topical treatment, 10 μM, 5 days",increase in melanogenesis comparable to that obtained with chronic UVA irradiation
same,-LogEC50 (average n > 3),OR7C1,> 8
